Like-named read-outs stand apart in the source and are kept apart here.
Columns and labels:
HeLa cells = assay: Apoptosis by DAPI staining of the nuclei in HeLa cells; type: cell-based; settings: cytotoxic concentrations
Description: HeLa cells were treated with asiatic acid at cytotoxic concentrations and apoptosis of the cells was measured by DAPI staining of the nuclei (2).

[1] = MTT dye reduction cytotoxicity test, OKF6; type: cell-based; settings: human
Description: (§1) Taxol is a commercially available chemotherapeutic predominantly used in the treatment of breast cancer, lung cancer and ovarian cancer. The experiments were performed on human foreskin fibroblast cells as well as established tumor cell lines. The percentage cytotoxicity was measured by the MTT dye reduction test, which requires the NADPH dehydrogenase enzyme of the mitochondria in live cells (1).

[2] = tested on: Squamous carcinoma cells of SCC4; assay: MTT dye reduction cytotoxicity test, SCC4; type: cell-based; settings: Homo sapiens
Description: as §1

[3] = tested on: New Born Foreskin Fibroblast cells; assay: MTT dye reduction cytotoxicity test, new born foreskin fibroblast cells; type: cell-based, human
Description: as §1

[4] = as above; type: cell-based, human; settings: human
Description: as §1

[5] = tested on: SK-BR3 breast cancer cell line; assay: MTT dye reduction cytotoxicity test, SK-BR3; type: cell-based; settings: Homo sapiens
Description: as §1

[6] = tested on: Squamous carcinoma cells of SCC15; assay: MTT dye reduction cytotoxicity test, SCC15; type: cell-based; settings: for cytotoxicity at 2.5 µg/mL / cytotoxicity at 5 µg/mL / cytotoxicity at 10 µg/mL / cytotoxicity at 20 µg/mL / cytotoxicity at 25 µg/mL: Homo sapiens
Description: as §1

[7] = MTT dye reduction cytotoxicity test, OKF6; type: cell-based; settings: human, OKF6 cells (SV40-transformed normal epithelial cell line)

C[C@H]1[C@H](C)CC[C@]2(C(=O)O)CC[C@]3(C)C(=CC[C@@H]4[C@@]5(C)C[C@@H](O)[C@H](O)[C@@](C)(CO)[C@@H]5CC[C@]43C)[C@H]12 [Asiatic Acid, asiatic acid]
apoptosis of the cells measured by DAPI staining of the nuclei (HeLa cells): inducing apoptotic cell death | cytotoxicity at 2.5 μg/ml [1]: 5% | cytotoxicity at 5 μg/ml [1]: 23% | cytotoxicity at 10 μg/ml [1]: 88% | cytotoxicity at 20 μg/ml [1]: 92% | cytotoxicity at 25 μg/ml [1]: 92% | cytotoxicity at 5 µg/mL ([2]; SCC-4, read-out: % cytotox): 75% | cytotoxicity at 10 µg/mL ([2]; SCC-4, read-out: % cytotox): 75% | cytotoxicity at 20 µg/mL ([2]; SCC-4, read-out: % cytotox): 80% | cytotoxicity at 40 µg/mL ([2]; SCC-4, read-out: % cytotox): 70% | cytotoxicity at 50 µg/mL ([2]; SCC-4, read-out: % cytotox): 75% | cytotoxic effect on human foreskin fibroblast cells in culture [3]: dose-dependent | cytotoxicity at 0.8 μg/ml [4]: 30% | cytotoxicity at 6.25 μg/ml [4]: 30% | cytotoxicity at 12.5 μg/ml [4]: 80% | cytotoxicity at 25 μg/ml [4]: 84% | cytotoxicity at 0.8 µg/mL ([5]; SK-BR-3, read-out: % cytotox): 0% | cytotoxicity at 6.2 µg/mL ([5]; SK-BR-3, read-out: % cytotox): 0% | cytotoxicity at 12.5 µg/mL ([5]; SK-BR-3, read-out: % cytotox): 23% | cytotoxicity at 25 µg/mL ([5]; SK-BR-3, read-out: % cytotox): 80% | cytotoxicity to squamous carcinoma cells compared with solid tumor cell line [6]: more potent cytotoxicity | cytotoxicity at 2.5 µg/mL ([6]; SCC-15, read-out: % cytotox): 16% | cytotoxicity at 5 µg/mL ([6]; SCC-15, read-out: % cytotox): 20% | cytotoxicity at 10 µg/mL ([6]; SCC-15, read-out: % cytotox): 88% | cytotoxicity at 20 µg/mL ([6]; SCC-15, read-out: % cytotox): 86% | cytotoxicity at 25 µg/mL ([6]; SCC-15, read-out: % cytotox): 90%

CC(=O)O[C@H]1C(=O)[C@@]2(C)[C@H]([C@H](OC(=O)c3ccccc3)[C@]3(O)C[C@H](OC(=O)[C@H](O)[C@@H](NC(=O)c4ccccc4)c4ccccc4)C(C)=C1C3(C)C)[C@]1(OC(C)=O)CO[C@@H]1C[C@@H]2O [Taxol, reference compound]
cytotoxicity at 5 µg/mL ([2]; SCC-4, SCC4, 5 μg/ml, read-out: % cytotox): 52% | cytotoxicity at 10 µg/mL ([2]; SCC-4, SCC4, 10 μg/ml, read-out: % cytotox): 60% | cytotoxicity at 20 µg/mL ([2]; SCC-4, SCC4, 20 μg/ml, read-out: % cytotox): 60% | cytotoxicity at 40 µg/mL ([2]; SCC-4, SCC4, 40 μg/ml, read-out: % cytotox): 60% | cytotoxicity at 50 µg/mL ([2]; SCC-4, SCC4, 50 μg/ml, read-out: % cytotox): 40% | cytotoxicity at 0.8 μg/ml ([4]; New Born Foreskin Fibroblast cells, 0.8 μg/ml, read-out: % cytotox): 40% | cytotoxicity at 6.25 μg/ml ([4]; New Born Foreskin Fibroblast cells, 6.25 μg/ml, read-out: % cytotox): 40% | cytotoxicity at 12.5 μg/ml ([4]; New Born Foreskin Fibroblast cells, 12.5 μg/ml, read-out: % cytotox): 50% | cytotoxicity at 25 μg/ml ([4]; New Born Foreskin Fibroblast cells, 25 μg/ml, read-out: % cytotox): 55% | cytotoxicity at 0.8 µg/mL ([5]; SK-BR-3, SK-BR3, 0.8 μg/ml, read-out: % cytotox): 40% | cytotoxicity at 6.2 µg/mL ([5]; SK-BR-3, SK-BR3, 6.2 μg/ml, read-out: % cytotox): 50% | cytotoxicity at 12.5 µg/mL ([5]; SK-BR-3, SK-BR3, 12.5 μg/ml, read-out: % cytotox): 40% | cytotoxicity at 25 µg/mL ([5]; SK-BR-3, SK-BR3, 25 μg/ml, read-out: % cytotox): 50% | cytotoxicity at 2.5 µg/mL ([6]; SCC-15, SCC15, 2.5 μg/ml, read-out: % cytotox): 3% | cytotoxicity at 5 µg/mL ([6]; SCC-15, SCC15, 5 μg/ml, read-out: % cytotox): 0% | cytotoxicity at 10 µg/mL ([6]; SCC-15, SCC15, 10 μg/ml, read-out: % cytotox): 0% | cytotoxicity at 20 µg/mL ([6]; SCC-15, SCC15, 20 μg/ml, read-out: % cytotox): 8% | cytotoxicity at 25 µg/mL ([6]; SCC-15, SCC15, 25 μg/ml, read-out: % cytotox): 23% | cytotoxicity at 2.5 μg/ml ([7]; OKF6, 2.5 μg/ml): 26% | cytotoxicity at 5 μg/ml ([7]; OKF6, 5 μg/ml): 41% | cytotoxicity at 10 μg/ml ([7]; OKF6, 10 μg/ml): 54% | cytotoxicity at 20 μg/ml ([7]; OKF6, 20 μg/ml): 48% | cytotoxicity at 25 μg/ml ([7]; OKF6, 25 μg/ml): 75%

Reference: patent US20040097463A1, “Use of asiatic acid or asiaticoside for treatment of cancer” (priority 2000, published 2004)
